From patent publication US8952033B2, “4-anilinofuro[2,3-b]quinoline derivatives, their preparation processes, and pharmaceutical compositions comprising the same” (Kaohsiung Medical University, priority 2011, dated 2015)

Legend:
[1] = system: MCF-7 (breast cancer cell); test: MTT antiproliferative assay (cell growth %, GI50), MCF-7; type: cell-based; conditions: Homo sapiens, MCF7, 48 hours, MTT; for activity at 4000 µg/mL: 4 mg/ml; for activity at 20000 µg/mL: 20 mg/ml
Method: (§1) Antiproliferative activities of the compounds of this invention were evaluated substantially according to the method as described in Tseng, C. […] The cells were treated with the test compounds, i.e., the compounds of this invention (in dimethylsulfoxide (DMSO)), or DMSO for 48 hours.
(§2) Before and after the treatment with the test compounds or DMSO, 3-(4,5-dimethylthiazol-2-yl)-2,5-diphenyltetrazolium bromide (MTT, 2 mg/mL, 100 μL) was added to each of the cultures, followed by cultivation for 2 hours. The resultant formazan was dissolved by the addition of DMSO. Absorbance at 570 nm (OD570) was measured using a microtiter plate reader (Dynex MRX-II).
(§3) Determination of GI50 was conducted thrice for each test compound. GI50 is expressed as mean±SD.

[2] = system: NCI-H460 (non-small cell lung carcinoma cell); test: MTT antiproliferative assay (cell growth %, GI50), NCI-H460; type: cell-based; conditions: Homo sapiens, NCI-H460, 48 hours, MTT; for activity at 4000 µg/mL: 4 mg/ml; for activity at 20000 µg/mL: 20 mg/ml
Method: as §1, §2, §3

## C/C(=N\OCCCN(C)C)c1ccc(Nc2c3ccccc3nc3occ(Cl)c23)cc1 [Compound 14d, (E)-1-(4-(3-Chlorofuro[2,3-b]quinolin-4-ylamino)phenyl)ethanone O-3-(dimethylamino)propyl oxime]
[1]
  activity at 4000 µg/mL: 61%
  activity at 20000 µg/mL: 1%
[2]
  activity at 4000 µg/mL: 52%
  activity at 20000 µg/mL: 1%

## COc1ccc2c(Nc3ccc(/C(C)=N/OCCCCN4CCOCC4)cc3)c3ccoc3nc2c1 [Compound 15h, (E)-1-(4-(7-Methoxyfuro[2,3-b]quinolin-4-ylamino)phenyl)ethanone O-4-morpholinobutyl oxime]
[1]
  activity at 4000 µg/mL: 83%
  activity at 20000 µg/mL: 75%
[2]
  activity at 4000 µg/mL: 89%
  activity at 20000 µg/mL: 21%

## COc1ccc2c(Nc3ccc(/C(C)=N/OCCN4CCOCC4)cc3)c3c(Cl)coc3nc2c1 [Compound 16g, (E)-1-(4-(3-Chloro-7-methoxyfuro[2,3-b]quinolin-4-ylamino)phenyl)ethanone O-2-morpholinoethyl oxime]
[1]
  activity at 4000 µg/mL: 85%
  activity at 20000 µg/mL: 37%
[2]
  activity at 4000 µg/mL: 97%
  activity at 20000 µg/mL: 68%

## C/C(=N\OCCN1CCOCC1)c1ccc(Nc2c3ccccc3nc3occc23)cc1 [Compound 13g, (E)-1-(4-(Furo[2,3-b]quinolin-4-ylamino)phenyl)ethanone O-2-morpholinoethyl oxime]
[1]
  activity at 4000 µg/mL: 120%
  activity at 20000 µg/mL: 56%
[2]
  activity at 4000 µg/mL: 108%
  activity at 20000 µg/mL: 23%

## C/C(=N\OCCCCN1CCOCC1)c1ccc(Nc2c3ccccc3nc3occ(Cl)c23)cc1 [Compound 14h, (E)-1-(4-(3-Chlorofuro[2,3-b]quinolin-4-ylamino)phenyl)ethanone O-4-morpholinobutyl oxime]
[1]
  activity at 4000 µg/mL: 75%
  activity at 20000 µg/mL: -3%
[2]
  activity at 4000 µg/mL: 91%
  activity at 20000 µg/mL: 3%

## COc1ccc2c(Nc3ccc(/C(C)=N/OCCN(C)C)cc3)c3ccoc3nc2c1 [Compound 15b, (E)-1-(4-(7-Methoxyfuro[2,3-b]quinolin-4-ylamino)phenyl)ethanone O-2-(dimethylamino)ethyl oxime]
[1]
  activity at 4000 µg/mL: 67%
  activity at 20000 µg/mL: -1%
[2]
  activity at 4000 µg/mL: 75%
  activity at 20000 µg/mL: -1%

## C/C(=N\OCCN1CCOCC1)c1ccc(Nc2c3ccccc3nc3occ(Cl)c23)cc1 [Compound 14g, (E)-1-(4-(3-Chlorofuro[2,3-b]quinolin-4-ylamino)phenyl)ethanone O-2-morpholinoethyl oxime]
[1]
  activity at 4000 µg/mL: 112%
  activity at 20000 µg/mL: 54%
[2]
  activity at 4000 µg/mL: 107%
  activity at 20000 µg/mL: 16%

## C/C(=N\OCCN(C)C)c1ccc(Nc2c3ccccc3nc3occc23)cc1 [Compound 13b, (E)-1-(4-(Furo[2,3-b]quinolin-4-ylamino)phenyl)ethanone O-2-(dimethylamino)ethyl oxime]
[1]
  activity at 4000 µg/mL: 59%
  activity at 20000 µg/mL: 0%
[2]
  activity at 4000 µg/mL: 94%
  activity at 20000 µg/mL: 0%

## COc1ccc2c(Nc3ccc(/C(C)=N/OCCN4CCCCC4)cc3)c3ccoc3nc2c1 [Compound 15f, (E)-1-(4-(7-Methoxyfuro[2,3-b]quinolin-4-ylamino)phenyl)ethanone O-2-(piperidin-1-yl)ethyl oxime]
[1]
  activity at 4000 µg/mL: 77%
  activity at 20000 µg/mL: 2%
[2]
  activity at 4000 µg/mL: 84%
  activity at 20000 µg/mL: 9%

## C/C(=N\OCCN1CCCCC1)c1ccc(Nc2c3ccccc3nc3occ(Cl)c23)cc1 [Compound 14f, (E)-1-(4-(3-Chlorofuro[2,3-b]quinolin-4-ylamino)phenyl)ethanone O-2-(piperidin-1-yl)ethyl oxime]
[1]
  activity at 4000 µg/mL: 121%
  activity at 20000 µg/mL: 26%
[2]
  activity at 4000 µg/mL: 101%
  activity at 20000 µg/mL: 3%

## COc1ccc2c(Nc3ccc(/C(C)=N/OCCN4CCCC4)cc3)c3c(Cl)coc3nc2c1 [Compound 16e, (E)-1-(4-(3-Chloro-7-methoxyfuro[2,3-b]quinolin-4-ylamino)phenyl)ethanone O-2-(pyrrolidin-1-yl)ethyl oxime]
[1]
  activity at 4000 µg/mL: 55%
  activity at 20000 µg/mL: 1%
[2]
  activity at 4000 µg/mL: 53%
  activity at 20000 µg/mL: 5%

## COc1ccc2c(Nc3ccc(/C(C)=N/OCCN4CCOCC4)cc3)c3ccoc3nc2c1 [Compound 15g, (E)-1-(4-(7-Methoxyfuro[2,3-b]quinolin-4-ylamino)phenyl)ethanone O-2-morpholinoethyl oxime]
[1]
  activity at 4000 µg/mL: 76%
  activity at 20000 µg/mL: 25%
[2]
  activity at 4000 µg/mL: 96%
  activity at 20000 µg/mL: 44%

## C/C(=N\OCCN1CCCCC1)c1ccc(Nc2c3ccccc3nc3occc23)cc1 [Compound 13f, (E)-1-(4-(Furo[2,3-b]quinolin-4-ylamino)phenyl)ethanone O-2-(piperidin-1-yl)ethyl oxime]
[1]
  activity at 4000 µg/mL: 114%
  activity at 20000 µg/mL: 3%
[2]
  activity at 4000 µg/mL: 99%
  activity at 20000 µg/mL: -1%

## C/C(=N\OCCN(C)C)c1ccc(Nc2c3ccccc3nc3occ(Cl)c23)cc1 [Compound 14b, (E)-1-(4-(3-Chlorofuro[2,3-b]quinolin-4-ylamino)phenyl)ethanone O-2-(dimethylamino)ethyl oxime]
[1]
  activity at 4000 µg/mL: 70%
  activity at 20000 µg/mL: -3%
[2]
  activity at 4000 µg/mL: 68%
  activity at 20000 µg/mL: -1%

## COc1ccc2c(Nc3ccc(/C(C)=N/OCCCN(C)C)cc3)c3ccoc3nc2c1 [Compound 15d, (E)-1-(4-(7-Methoxyfuro[2,3-b]quinolin-4-ylamino)phenyl)ethanone O-3-(dimethylamino)propyl oxime]
[1]
  activity at 4000 µg/mL: 59%
  activity at 20000 µg/mL: 2%
[2]
  activity at 4000 µg/mL: 82%
  activity at 20000 µg/mL: 5%

## C/C(=N\OCCCN(C)C)c1ccc(Nc2c3ccccc3nc3occc23)cc1 [Compound 13d, (E)-1-(4-(Furo[2,3-b]quinolin-4-ylamino)phenyl)ethanone O-3-(dimethylamino)propyl oxime]
[1]
  activity at 4000 µg/mL: 84%
  activity at 20000 µg/mL: 22%
[2]
  activity at 4000 µg/mL: 52%
  activity at 20000 µg/mL: 7%

## C/C(=N\OCCN1CCCC1)c1ccc(Nc2c3ccccc3nc3occ(Cl)c23)cc1 [Compound 14e, (E)-1-(4-(3-Chlorofuro[2,3-b]quinolin-4-ylamino)phenyl)ethanone O-2-(pyrrolidin-1-yl)ethyl oxime]
[1]
  activity at 4000 µg/mL: 86%
  activity at 20000 µg/mL: -2%
[2]
  activity at 4000 µg/mL: 69%
  activity at 20000 µg/mL: -1%

## COc1ccc2c(Nc3ccc(/C(C)=N/OCCN4CCCCC4)cc3)c3c(Cl)coc3nc2c1 [Compound 16f, (E)-1-(4-(3-Chloro-7-methoxyfuro[2,3-b]quinolin-4-ylamino)phenyl)ethanone O-2-(piperidin-1-yl)ethyl oxime]
[1]
  activity at 4000 µg/mL: 56%
  activity at 20000 µg/mL: -1%
[2]
  activity at 4000 µg/mL: 67%
  activity at 20000 µg/mL: 3%

## COc1ccc2c(Nc3ccc(/C(C)=N/OCCCN)cc3)c3ccoc3nc2c1 [Compound 15c, (E)-1-(4-(7-Methoxyfuro[2,3-b]quinolin-4-ylamino)phenyl)ethanone O-3-aminopropyl oxime]
[1]
  activity at 4000 µg/mL: 100%
  activity at 20000 µg/mL: 18%
[2]
  activity at 4000 µg/mL: 105%
  activity at 20000 µg/mL: 16%

## C/C(=N\OCCCCN1CCOCC1)c1ccc(Nc2c3ccccc3nc3occc23)cc1 [Compound 13h, (E)-1-(4-(Furo[2,3-b]quinolin-4-ylamino)phenyl)ethanone O-4-morpholinobutyl oxime]
[1]
  activity at 4000 µg/mL: 76%
  activity at 20000 µg/mL: -2%
[2]
  activity at 4000 µg/mL: 118%
  activity at 20000 µg/mL: -1%

## COc1ccc2c(Nc3ccc(/C(C)=N/OCCN4CCCC4)cc3)c3ccoc3nc2c1 [Compound 15e, (E)-1-(4-(7-Methoxyfuro[2,3-b]quinolin-4-ylamino)phenyl)ethanone O-2-(pyrrolidin-1-yl)ethyl oxime]
[1]
  activity at 4000 µg/mL: 63%
  activity at 20000 µg/mL: 3%
[2]
  activity at 4000 µg/mL: 69%
  activity at 20000 µg/mL: 5%

## C/C(=N\OCCN1CCCC1)c1ccc(Nc2c3ccccc3nc3occc23)cc1 [Compound 13e, (E)-1-(4-(Furo[2,3-b]quinolin-4-ylamino)phenyl)ethanone O-2-(pyrrolidin-1-yl)ethyl oxime]
[1]
  activity at 4000 µg/mL: 64%
  activity at 20000 µg/mL: 6%
[2]
  activity at 4000 µg/mL: 54%
  activity at 20000 µg/mL: 1%

## COc1ccc2c(Nc3ccc(/C(C)=N/OCCCCN4CCOCC4)cc3)c3c(Cl)coc3nc2c1 [Compound 16h, (E)-1-(4-(3-Chloro-7-methoxyfuro[2,3-b]quinolin-4-ylamino)phenyl)ethanone O-4-morpholinobutyl oxime]
[1]
  activity at 4000 µg/mL: 96%
  activity at 20000 µg/mL: 5%
[2]
  activity at 4000 µg/mL: 87%
  activity at 20000 µg/mL: 20%

## COc1ccc2c(Nc3ccc(/C(C)=N/OCCCN)cc3)c3c(Cl)coc3nc2c1 [Compound 16c, (E)-1-(4-(3-Chloro-7-methoxyfuro[2,3-b]quinolin-4-ylamino)phenyl)ethanone O-3-aminopropyl oxime]
[1]
  activity at 4000 µg/mL: 101%
  activity at 20000 µg/mL: 3%
[2]
  activity at 4000 µg/mL: 91%
  activity at 20000 µg/mL: 8%
